Assay results reported in patent US7015215B2, “Pyrrolo[2,1-c][1,4] benzodiazepines compounds and process thereof” (Council of Scientific and Industrial Research, priority 2003, dated 2006).

Tests used:
HCT-116 = test: NCI SRB cytotoxicity, Colon HCT-116; type: cell-based, human; conditions: HCT-116, Colon, 48 h
Description: (§1) Biological Activity: In vitro biological activity studies were carried out at National Cancer Institute (U.S.A.).
(§2) For each compound, dose response curves for each cell line were measured at a minimum of five concentrations at 10 fold dilutions. A protocol of 48 h continuous drug exposure was used, and a sulforhodamine B (SRB) protein assay was used to estimate cell viability or growth. The concentration causing 50% cell growth inhibition (GI50), total cell growth inhibition (TGI, 0% growth) and 50% cell death (LC50, −50% growth) compared with the control was calculated.

NCI-H460 = test: NCI SRB cytotoxicity, Non-small-cell lung NCI-H460; type: cell-based, human; conditions: 48 h
Description: as §1, §2

SN12C = test: NCI SRB cytotoxicity, Renal SN12C; type: cell-based, human; conditions: 48 h
Description: as §1, §2

HCT-15 = test: NCI SRB cytotoxicity, Colon HCT-15; type: cell-based, human; conditions: HCT-15, Colon, 48 h
Description: as §1, §2

MDA-MB-231/ATCC = test: NCI SRB cytotoxicity, Breast MDA-MB-231/ATCC; type: cell-based, human; conditions: 48 h
Description: as §1, §2

SK-MEL-28 = test: NCI SRB cytotoxicity, Melanoma SK-MEL-28; type: cell-based, human; conditions: SK-MEL-28, Melanoma, 48 h
Description: as §1, §2

NCI-H322 = test: NCI SRB cytotoxicity, Non-small-cell lung NCI-H322; type: cell-based, human; conditions: 48 h
Description: as §1, §2

CAKI-1 = test: NCI SRB cytotoxicity, Renal CAKI-1; type: cell-based, human; conditions: CAKI-1, Renal, 48 h
Description: as §1, §2

U251 = test: NCI SRB cytotoxicity, CNS U251; type: cell-based, human; conditions: 48 h
Description: as §1, §2

MCF7 = test: NCI SRB cytotoxicity, Breast MCF7; type: cell-based, human; conditions: 48 h
Description: as §1, §2

DU-145 = test: NCI SRB cytotoxicity, Prostate DU-145; type: cell-based, human; conditions: DU-145, Prostate, 48 h
Description: as §2

SNB-75 = test: NCI SRB cytotoxicity, CNS SNB-75; type: cell-based, human; conditions: SNB-75, CNS, 48 h
Description: as §1, §2

UO-31 = test: NCI SRB cytotoxicity, Renal UO-31; type: cell-based, human; conditions: UO-31, Renal, 48 h
Description: as §2

TK-10 = test: NCI SRB cytotoxicity, Renal TK-10; type: cell-based, human; conditions: TK-10, Renal, 48 h
Description: as §1, §2

A549/ATCC = test: NCI SRB cytotoxicity, Non-small-cell lung A549/ATCC; type: cell-based, human; conditions: 48 h
Description: as §1, §2

786-0 = test: NCI SRB cytotoxicity, Renal 786-0; type: cell-based, human; conditions: 786-0, Renal, 48 h
Description: as §1, §2

NCI-H226 = test: NCI SRB cytotoxicity, Non-small-cell lung NCI-H226; type: cell-based, human; conditions: 48 h
Description: as §1, §2

ACHN = test: NCI SRB cytotoxicity, Renal ACHN; type: cell-based, human; conditions: 48 h
Description: as §1, §2

SNB-19 = test: NCI SRB cytotoxicity, CNS SNB-19; type: cell-based, human; conditions: SNB-19, CNS, 48 h
Description: as §1, §2

IGROVI = test: NCI SRB cytotoxicity, Ovarian IGROVI; type: cell-based, human; conditions: 48 h
OVCAR-3 = test: NCI SRB cytotoxicity, Ovarian OVCAR-3; type: cell-based, human; conditions: OVCAR-3, Ovarian, 48 h
Description: as §1, §2

SK-MEL-2 = test: NCI SRB cytotoxicity, Melanoma SK-MEL-2; type: cell-based, human; conditions: SK-MEL-2, Melanoma, 48 h
Description: as §1, §2

PC-3 = test: NCI SRB cytotoxicity, Prostate PC-3; type: cell-based, human; conditions: PC-3, Prostate, 48 h
Description: as §2

HL-60(TB) = conditions: Leukemia, 48 h, SRB
Description: as §1, §2

EKVX = test: NCI SRB cytotoxicity, Non-small-cell lung EKVX; type: cell-based, human; conditions: 48 h
Description: as §1, §2

MDA-MB-435 = test: NCI SRB cytotoxicity, Breast MDA-MB-435; type: cell-based, human; conditions: MDA-MB-435, Breast, 48 h
Description: as §1, §2

MALME-3M = test: NCI SRB cytotoxicity, Melanoma MALME-3M; type: cell-based, human; conditions: 48 h
Description: as §1, §2

M14 = test: NCI SRB cytotoxicity, Melanoma M14; type: cell-based, human; conditions: 48 h
Description: as §1, §2

MOLT-4 = test: NCI SRB cytotoxicity, Leukemia MOLT-4; type: cell-based, human; conditions: MOLT-4, Leukemia, 48 h
Description: as §1, §2

SF-268 = test: NCI SRB cytotoxicity, CNS SF-268; type: cell-based, human; conditions: SF-268, CNS, 48 h
Description: as §1, §2

UACC-62 = test: NCI SRB cytotoxicity, Melanoma UACC-62; type: cell-based, human; conditions: UACC-62, Melanoma, 48 h
Description: as §1, §2

SR = test: NCI SRB cytotoxicity, Leukemia SR; type: cell-based, human; conditions: 48 h
Description: as §1, §2

OVCAR-5 = test: NCI SRB cytotoxicity, Ovarian OVCAR-5; type: cell-based, human; conditions: OVCAR-5, Ovarian, 48 h
Description: as §1, §2

HOP-62 = test: NCI SRB cytotoxicity, Non-small-cell lung HOP-62; type: cell-based, human; conditions: HOP-62, Non-small-cell lung, 48 h
Description: as §1, §2

NCI/ADR-RES = test: NCI SRB cytotoxicity, Breast NCI/ADR-RES; type: cell-based, human; conditions: 48 h
Description: as §1, §2

HS578T = test: NCI SRB cytotoxicity, Breast HS578T; type: cell-based, human; conditions: 48 h
Description: as §1, §2

OVCAR-4 = test: NCI SRB cytotoxicity, Ovarian OVCAR-4; type: cell-based, human; conditions: OVCAR-4, Ovarian, 48 h
Description: as §1, §2

HCC-2998 = test: NCI SRB cytotoxicity, Colon HCC-2998; type: cell-based, human; conditions: HCC-2998, Colon, 48 h
Description: as §1, §2

COc1cc2c(cc1OCCN1CCN(CCOc3cc4c(cc3OC)C(=O)N3CCC[C@H]3C=N4)CC1)N=C[C@@H]1CCCN1C2=O [Compound VIa, 1,1′-{[(bisethane-1,N-diyl)piperazine]dioxy}bis[(11aS)-7-methoxy-1,2,3,11a-tetrahydro-5H-pyrrolo[2,1-c][1,4]benzodiazepin-5-one]]
Log GI 50 (HCT-116): −4.47 mol/L
Log LC 50 (HCT-116): −4.00 mol/L
Log GI 50 (NCI-H460): −4.95 mol/L
Log LC 50 (NCI-H460): −4.00 mol/L
Log GI 50 (SN12C): −4.90 mol/L
Log LC 50 (SN12C): −4.00 mol/L
Log GI 50 (HCT-15): −4.39 mol/L
Log LC 50 (HCT-15): −4.00 mol/L
Log GI 50 (MDA-MB-231/ATCC): −4.67 mol/L
Log LC 50 (MDA-MB-231/ATCC): −4.00 mol/L
Log GI 50 (SK-MEL-28): −4.22 mol/L
Log LC 50 (SK-MEL-28): −4.00 mol/L
Log GI 50 (NCI-H322): −4.51 mol/L
Log LC 50 (NCI-H322): −4.00 mol/L
Log GI 50 (CAKI-1): −5.04 mol/L
Log LC 50 (CAKI-1): −4.00 mol/L
Log GI 50 (U251): −4.87 mol/L
Log LC 50 (U251): −4.00 mol/L
Log GI 50 (MCF7): −4.88 mol/L
Log LC 50 (MCF7): −4.00 mol/L
Log GI 50 (DU-145): −4.36 mol/L
Log LC 50 (DU-145): −4.00 mol/L
Log GI 50 (SNB-75): −4.23 mol/L
Log LC 50 (SNB-75): −4.00 mol/L
Log GI 50 (UO-31): −4.12 mol/L
Log LC 50 (UO-31): −4.00 mol/L
Log GI 50 (TK-10): −4.63 mol/L
Log LC 50 (TK-10): −4.00 mol/L
Log GI 50 (A549/ATCC): −4.10 mol/L
Log LC 50 (A549/ATCC): −4.00 mol/L
Log GI 50 (786-0): −4.84 mol/L
Log LC 50 (786-0): −4.00 mol/L
Log GI 50 (NCI-H226): −4.80 mol/L
Log LC 50 (NCI-H226): −4.00 mol/L
Log GI 50 (ACHN): −4.82 mol/L
Log LC 50 (ACHN): −4.00 mol/L
Log GI 50 (SNB-19): −4.75 mol/L
Log LC 50 (SNB-19): −4.00 mol/L
Log GI 50 (IGROVI): −4.21 mol/L
Log LC 50 (IGROVI): −4.00 mol/L
Log GI 50 (OVCAR-3): −4.68 mol/L
Log LC 50 (OVCAR-3): −4.00 mol/L
Log GI 50 (SK-MEL-2): −4.57 mol/L
Log LC 50 (SK-MEL-2): −4.00 mol/L
Log GI 50 (PC-3): −4.44 mol/L
Log LC 50 (PC-3): −4.00 mol/L
Log GI 50 (HL-60(TB)): −5.49 mol/L
Log LC 50 (HL-60(TB)): −4.00 mol/L
Log GI 50 (EKVX): −4.00 mol/L
Log LC 50 (EKVX): −4.00 mol/L
Log GI 50 (MDA-MB-435): −4.71 mol/L
Log LC 50 (MDA-MB-435): −4.08 mol/L
Log GI 50 (MALME-3M): −5.46 mol/L
Log LC 50 (MALME-3M): −4.17 mol/L
Log GI 50 (M14): −4.61 mol/L
Log GI 50 (MOLT-4): −5.68 mol/L
Log LC 50 (MOLT-4): −4.10 mol/L
Log GI 50 (SF-268): −4.95 mol/L
Log LC 50 (SF-268): −4.00 mol/L
Log GI 50 (UACC-62): −4.83 mol/L
Log LC 50 (UACC-62): −4.00 mol/L
Log GI 50 (SR): −6.68 mol/L
Log LC 50 (SR): −5.21 mol/L
Log GI 50 (OVCAR-5): −4.65 mol/L
Log LC 50 (OVCAR-5): −4.00 mol/L
Log GI 50 (HOP-62): −4.46 mol/L
Log LC 50 (HOP-62): −4.00 mol/L
Log GI 50 (NCI/ADR-RES): −4.00 mol/L
Log LC 50 (NCI/ADR-RES): −4.00 mol/L
Log GI 50 (HS578T): −4.34 mol/L
Log LC 50 (HS578T): −4.00 mol/L
Log GI 50 (OVCAR-4): −4.00 mol/L
Log LC 50 (OVCAR-4): −4.00 mol/L

COc1cc2c(cc1OCCCCN1CCN(CCCCOc3cc4c(cc3OC)C(=O)N3CCC[C@H]3C=N4)CC1)N=C[C@@H]1CCCN1C2=O [Compound VIc, 1,1′-{[(bisbutane-1,N-diyl)piperazine]dioxy}bis[(11aS)-7-methoxy-1,2,3,11a-tetrahydro-5H-pyrrolo[2,1-c][1,4]benzodiazepin-5-one]]
Log GI 50 (HCT-116): −6.42 mol/L
Log LC 50 (HCT-116): −4.00 mol/L
Log GI 50 (HCC-2998): −7.95 mol/L
Log LC 50 (HCC-2998): −4.00 mol/L
Log LC 50 (NCI-H460): −4.00 mol/L
Log LC 50 (SN12C): −4.00 mol/L
Log GI 50 (HCT-15): −7.92 mol/L
Log LC 50 (HCT-15): −6.37 mol/L
Log GI 50 (MDA-MB-231/ATCC): −7.47 mol/L
Log LC 50 (MDA-MB-231/ATCC): −4.43 mol/L
Log GI 50 (SK-MEL-28): −7.69 mol/L
Log LC 50 (SK-MEL-28): −4.00 mol/L
Log GI 50 (NCI-H322): −7.59 mol/L
Log LC 50 (NCI-H322): −4.00 mol/L
Log LC 50 (CAKI-1): −4.28 mol/L
Log LC 50 (U251): −4.41 mol/L
Log LC 50 (MCF7): −4.00 mol/L
Log GI 50 (DU-145): −7.60 mol/L
Log LC 50 (DU-145): −4.00 mol/L
Log GI 50 (SNB-75): −7.94 mol/L
Log LC 50 (SNB-75): −4.00 mol/L
Log GI 50 (UO-31): −6.65 mol/L
Log LC 50 (UO-31): −4.00 mol/L
Log GI 50 (TK-10): −7.69 mol/L
Log LC 50 (TK-10): −4.00 mol/L
Log GI 50 (A549/ATCC): −7.23 mol/L
Log LC 50 (A549/ATCC): −4.00 mol/L
Log LC 50 (786-0): −4.00 mol/L
Log LC 50 (NCI-H226): −4.00 mol/L
Log LC 50 (ACHN): −4.00 mol/L
Log LC 50 (SNB-19): −4.44 mol/L
Log GI 50 (IGROVI): −6.79 mol/L
Log LC 50 (IGROVI): −4.00 mol/L
Log GI 50 (OVCAR-3): −7.91 mol/L
Log LC 50 (OVCAR-3): −4.00 mol/L
Log GI 50 (SK-MEL-2): −7.34 mol/L
Log LC 50 (SK-MEL-2): −4.00 mol/L
Log GI 50 (PC-3): −7.02 mol/L
Log LC 50 (PC-3): −4.00 mol/L
Log LC 50 (HL-60(TB)): −4.00 mol/L
Log GI 50 (EKVX): −6.36 mol/L
Log LC 50 (EKVX): −4.00 mol/L
Log GI 50 (MDA-MB-435): −7.87 mol/L
Log LC 50 (MDA-MB-435): −7.15 mol/L
Log LC 50 (MALME-3M): −7.41 mol/L
Log GI 50 (M14): −7.60 mol/L
Log LC 50 (M14): −4.17 mol/L
Log LC 50 (MOLT-4): −4.00 mol/L
Log LC 50 (SF-268): −4.00 mol/L
Log LC 50 (UACC-62): −7.35 mol/L
Log LC 50 (SR): −5.62 mol/L
Log GI 50 (OVCAR-5): −7.92 mol/L
Log LC 50 (OVCAR-5): −4.00 mol/L
Log LC 50 (HOP-62): −4.00 mol/L
Log GI 50 (NCI/ADR-RES): −6.47 mol/L
Log LC 50 (NCI/ADR-RES): −4.00 mol/L
Log GI 50 (HS578T): −7.30 mol/L
Log LC 50 (HS578T): −4.00 mol/L
Log GI 50 (OVCAR-4): −7.11 mol/L
Log LC 50 (OVCAR-4): −4.00 mol/L
